This is an account of results in publication PMC3034772 (Pharmaceutical research, 2010).

Where two headings read alike, the source gives them in different places.

Series [1] in a line: Charge class Q, dominant calculated charge state at pH 7.4. It is filed as physicochemical.
A short description of series [2]: In combo PAMPA-BBB model, calculated log Po in situ.
The conditions of series [3]: PAMPA; for Pm^7.4: pH 7.4. In general terms: PAMPA measures passive passage across an artificial lipid membrane.
For series [4] the following is noted: in vivo.
The conditions of series [5]: in vivo; cited from earlier work.
The conditions of series [6]: in vivo; cited from earlier work. The source holds these as a separate data set.
The conditions of series [7]: mouse, in vivo.
For series [8] the following is noted: mouse, in vivo; cited from earlier work.
The nature of the next series: Double-Sink PAMPA. The conditions noted are these: intrinsic permeability, Type DS, Double-Sink PAMPA data scaled to the 3 μL level.
The nature of series [9]: In situ brain perfusion, individual literature values. Particulars: efflux inhibition column: Kd; from literature PS.
Setting [10] is: dominant calculated concentration fraction of the drug in a charge state.

Take `COc1ccc2c3c1O[C@H]1[C@@H](O)C=C[C@H]4[C@@H](C2)N(C)CC[C@@]341` [Codeine]: the “Q (charge class)” value in [1] is reported as “+”. Besides, the “obs–calc (log Po^in situ)” value in series [2] is recorded as −0.2. Further, in series [3], the “log PABL” value is −4.69, the “log Po” value is reported as −3.68, the “log Ppara” value is −7.16 and the “Pm^7.4” value amounted to 27. Also, in series [4], the “log Po^in situ (obs)” value is −3.80. Also, the “log BB (brain-to-plasma total concentration ratio)” value in series [5] was 0.55. In [6], the PS is 33 10^−4 mLg^−1s^−1 and the “log PS” value is −2.48.

For `COc1ccc2c3c1O[C@H]1C[C@@H](O)C=C[C@@]31CCN(C)C2` [Galanthamine], the “Q (charge class)” value in series [1] was “+”. Further, the “obs–calc (log Po^in situ)” value in series [2] was 0.2. Besides, in series [3], the “log PABL” value was −4.89, the “log Po” value is reported as −3.41, the “log Ppara” value is −7.73 and the “Pm^7.4” value was determined as 22. In addition, in [7], the “log Po^in situ (obs)” value is given as −3.21. Also, the pKa (in general, the pH at which an ionisable group is half protonated) in the series “physchem” was 8.62. For the same compound, the “log Po^in situ (obs)” value in series [4] is listed as −3.24. In addition, the “log BB (brain-to-plasma total concentration ratio)” value in [5] is on record as 0.00. Also, in [8], the PS is given as 35 10^−4 mLg^−1s^−1 and the “log PS” value is −2.46. In [6], the PS is recorded as 33 10^−4 mLg^−1s^−1 and the “log PS” value is −2.48.

As to `O=C(O)c1ccccc1O` [Salicylic Acid], in series [1] (setting [10]), the “Q (charge class)” value is reported as “−”. Moreover, in [2] (no efflux inhibition), the “obs–calc (log Po^in situ)” value is given as 0.9. Also, in “Double-Sink PAMPA”, the “log Po” value is −3.34.

For `CCCC(CCC)C(=O)O` [Valproic Acid], in series [1] (setting [10]), the “Q (charge class)” value is “−”. The “obs–calc (log Po^in situ)” value in [2] (efflux inhibition column: Kd) was −0.2. In series [2] (efflux inhibition mdr1a(−/−)), the “obs–calc (log Po^in situ)” value is on record as −0.2. In addition, in series [6], the PS is on record as 93 10^−4 mLg^−1s^−1 and the “log PS” value is reported as −2.03. For the same compound, in the series “Double-Sink PAMPA”, the “log Po” value was −3.77. Moreover, the “log Po^in situ (obs)” value in series [9] is −2.54.
